Source: patent US20230349008A1, “PAPER-BASED SAMPLE TESTING DEVICES AND METHODS THEREOF” (CORNELL UNIVERSITY, priority 2020, published 2023)

Tests used:
[1] = tested on: E. coli BAA-2452; settings: vendor MIC interpretation; cited from earlier work
[2] = tested on: E. coli BAA-2452; test: On-chip paper-based antimicrobial susceptibility testing (AST), resazurin colorimetric readout; assay type: cell-based, Escherichia coli; settings: eight test zones: seven antibiotic concentrations plus no-antibiotic control; overnight 37° C.; 5×10^5 CFU/mL; hue threshold
Excerpt: (§1) To functionalize the chips for AST, antibiotics and the growth-sensitive dye resazurin were pre-dried on the chip to enable testing with a single sample addition step. Antibiotics used consisted of ampicillin, meropenem, gentamicin, and ciprofloxacin (all sourced from MilliporeSigma). The growth-sensitive dye resazurin (PrestoBlue, Thermo Fisher) is a redox indicator that is reduced by metabolically active cells into resorufin, leading to significant colorimetric and fluorescent changes which provide a visual indication of bacterial growth as disclosed in Guerin, et al., “Application of resazurin for estimating abundance of contaminant-degrading micro-organisms,” Lett. Appl. […] Using a spectrophotometer (V-1200, VWR), the OD625 nm absorbance corresponding to a 0.5 McFarland standard was verified to be in the range of 0.08-0.13 22. […] To quantitatively analyze color change in the test zones following incubation, test chips were imaged using a smartphone and analyzed in MATLAB (MathWorks). Images were analyzed in the hue, saturation, value (HSV) color-space which we determined to be less sensitive to lighting conditions compared to the red, blue, green (RGB) color-space. For each test zone, the average hue value in a 160-pixel diameter circular region was calculated and a threshold was used to differentiate between zones with reduced (growth) and unreduced (no growth) resazurin. […]

[3] = tested on: E. coli ATCC-25922; test: as above; assay type: cell-based, Escherichia coli; settings: eight test zones: seven antibiotic concentrations plus no-antibiotic control; overnight 37° C.; 5×10^5 CFU/mL; hue threshold
Excerpt: as §1

[4] = tested on: E. coli ATCC-25922; settings: vendor MIC interpretation; cited from earlier work

Structure (SMILES): CC1(C)S[C@@H]2[C@H](NC(=O)[C@H](N)c3ccccc3)C(=O)N2[C@H]1C(=O)O [ampicillin]
- susceptibility category via off-chip AST [1]: resistant
- number of positive test zones (reduced resazurin, uninhibited growth) [2]: six
- number of positive test zones (reduced resazurin, uninhibited growth) [3]: no-antibiotic control positive only
- susceptibility category via off-chip AST [4]: susceptible
